Assay results: PubChem BioAssay AID602296 (Broad Institute, 2012)
Inconclusive results are not listed. Active and inactive are the calls of the source.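 Rule for the calls: active = fitted activation curve crossing 40% at a concentration no higher than the sample's top valid tested dose; inconclusive = flat fitted curve at 30% to 70% activation, or poor curve fit; inactive = signal decrease, flat curve within 30%, or the rest.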

These compounds were tested on NIH3T3-HGL HSF-1 response element luciferase, 48 h (assay: HSF-1 reporter activators over prolonged exposure, confirmation, cell-based, mouse, luciferase, cherry-pick, dose (AID 602296);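 note: test compounds applied by themselves with no MG132 co-treatment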).

SMILES | AC40
O=C(CC12CCC(CC1)C2)NCc1ccc2c(c1)OCO2 | > 26 µM (inactive)
Cn1c(=O)c(/C=C/c2ccc(F)cc2)nc2ccccc21 | 1.99 µM
COCCCn1c(Cc2csc(Nc3ccc(F)cc3)n2)nnc1SCC(N)=O | > 26 µM (inactive)
CCOCCCNC(=S)Nc1ccc2nc(N3CCOCC3)cc(C)c2c1 | > 26 µM (inactive)
Cc1occc1C(=O)NNS(=O)(=O)c1ccc([N+](=O)[O-])cc1 | > 26 µM (inactive)
CC1CCCCN1C(=O)COc1ccccc1F (stereo not drawn) | 21.2 µM
COc1ccc(-c2nc(C#N)c(N3CCCCC3)o2)cc1 | > 26 µM (inactive)
CCOC(=O)/C=C/C(=O)N1CCc2ccccc21 | > 26 µM (inactive)
Nc1nnc(SCC(=O)Nc2cccc3ccccc23)s1 | > 26 µM (inactive)
COc1ccccc1C(=O)CSc1nnc(-c2ccco2)o1 | 11.7 µM
COc1ccccc1/C=C1/SC(=S)N(C(C)C(=O)NC2C=CS(=O)(=O)C2)C1=O (stereo not drawn) | > 26 µM (inactive)
CCOC(=O)c1nnsc1Nc1ccc(C)c(C)c1 | 5.31 µM
N#CCCn1cc(C=C(C#N)C#N)c(-c2ccc(-c3ccccc3)cc2)n1 | > 12 µM (inactive)
Cc1cc(C)cc(NC(=O)CN(C)S(=O)(=O)c2cnc[nH]2)c1 | > 26 µM (inactive)
NC(=O)CCN1CCN(CCOC2Cc3cc(Cl)ccc3Sc3ccccc32)CC1 (stereo not drawn) | > 26 µM (inactive)
O=C(CSc1nc2ccccc2c2nc3ccccc3n12)NCc1ccco1 | 10.1 µM
Cc1onc(-c2ccccc2)c1C(=O)N=C(N)c1ccc(C(F)(F)F)cc1 | > 26 µM (inactive)
COc1ccc(-c2coc3cc4oc(=O)c(CC(=O)O)c(C)c4cc23)cc1 | > 26 µM (inactive)
COc1ccc(C(=O)Cn2c(C(=O)/C=C/c3ccccc3)nc3ccccc32)cc1 | 2.39 µM
COc1ccc(/C=C/C(=O)N(C(C)C)C(C)C)cc1Br | 6.82 µM
Cc1ccc2oc(C(=O)N3CCC(O)(c4cccc(C(F)(F)F)c4)CC3)c(C)c2c1 | 9.28 µM
Cc1ccc(C)c(CN2C(=O)COc3ccccc32)c1 | > 26 µM (inactive)

SMILES | AC40
S=C(NC1CCCCC1)NC1CC2C=CC1C2 (stereo not drawn) | > 26 µM (inactive)
CN1CCN(NC(=O)/C=C/c2ccc(Br)cc2)CC1 | > 26 µM (inactive)
Cc1[nH]nc2c1C(c1cc(Br)cs1)C(C#N)=C(N)O2 (stereo not drawn) | 12 µM
O=C(O)c1csc(N/N=C/c2ccc(Br)cc2)n1 | > 26 µM (inactive)
CC(=NCc1ccco1)C1=C(O)c2ccccc2C1=O | 16.6 µM
CC1(C)CC(=O)C2=C(C1)Nc1cc3c(cc1C2c1ccc2c(c1)OCO2)OCO3 (stereo not drawn) | 7.45 µM
C=CCn1c(=O)c2ccccc2n2c(SCC(=O)Nc3sc(C)c(CC)c3C(=O)OCC)nnc12 | > 26 µM (inactive)
N#Cc1ccc(OCCN2CCc3ccccc3C2)cc1 | 8.01 µM
Cc1nc(-c2ccc(Cl)cc2)sc1C(=O)CBr | 11.5 µM
Cc1noc(NS(=O)(=O)c2ccc(NC(=O)c3oc4ccc(F)cc4c3C)cc2)c1C | > 26 µM (inactive)
CSc1ccccc1-n1nnnc1SCC(=O)NCc1cccs1 | > 26 µM (inactive)
Cn1c(Cn2nnc3ccccc32)nnc1SCC(=O)c1ccccc1F | 20.6 µM
COC(=O)C1NN=C(C(=O)c2ccc(Cl)cc2)C1c1ccc(OC)cc1 (stereo not drawn) | > 26 µM (inactive)
CCC1(c2ccccc2)NC(=O)N(CC(=O)NCc2ccccc2OC)C1=O (stereo not drawn) | > 26 µM (inactive)
COc1cc(NC(=O)Cc2cccs2)ccc1-n1cnnn1 | > 26 µM (inactive)
CC1=Nc2ccccc2/C1=C/c1nc(-c2ccc(C)s2)oc1O | 10.1 µM
CC(C)NCC(O)COCc1ccc(Cl)cc1 (stereo not drawn) | > 26 µM (inactive)
COc1ccc(-n2cc(CNCc3cccnc3)c(-c3cccc(F)c3)n2)cc1 | > 26 µM (inactive)
CC1=CC(=O)C=C(C)C1=NOC(=O)/C=C\c1ccccc1 | > 26 µM (inactive)
Cn1c(Cl)cnc1C1CC(=O)c2cc(Cl)ccc2O1 (stereo not drawn) | > 26 µM (inactive)
Cc1cccc(N2CCN(c3cccc(C)c3)C2c2cccnc2)c1 | > 12 µM (inactive)
COc1ccc(-c2nc3scc(-c4ccccc4)n3n2)cc1 | 3.34 µM

SMILES | AC40
CCCc1nc(SCC(=O)Nc2cc(C)on2)c2ccccc2n1 | > 26 µM (inactive)
C/C(CC(=O)Nc1cccc2c1CCCC2)=N\NC(=O)COc1ccccc1 | > 26 µM (inactive)
Cc1ccc(NN2C(=O)C=C(c3ccccc3)C2=O)cc1 | 7.33 µM
Cc1ccc(-c2csc(NC(=O)c3cccc([N+](=O)[O-])c3)n2)cc1 | > 26 µM (inactive)
O=C(Nc1cccn2ncnc12)C(F)(F)F | > 26 µM (inactive)
CC(=O)N=c1sccn1CC(=O)c1ccc([N+](=O)[O-])cc1 | > 26 µM (inactive)
CCOC(=O)Cn1nnc(-c2cccc(OC)c2)n1 | 12.8 µM
CC(C)(CN)CC(=O)O | > 26 µM (inactive)
COc1ccc(/C=C/C(=O)OC2CCCN(C)C2)cc1 (stereo not drawn) | 12.6 µM
CCOc1cc(N2CCOCC2)c(OCC)cc1NC(=O)Cc1cccc2ccccc12 | > 26 µM (inactive)
Nc1nc(SCC(=O)Nc2ccc([N+](=O)[O-])cc2Br)n[nH]1 | > 26 µM (inactive)
C[C@@H]1C(NC(=O)c2ccccc2)CC2CC1C2(C)C (stereo partly drawn) | > 26 µM (inactive)
O=C(NCc1ccccc1)c1c(Cl)nc(Cl)c(Cl)c1Cl | > 26 µM (inactive)
CC(CCc1ccccc1)NC(=O)CN1CCc2ccccc2C1 (stereo not drawn) | > 26 µM (inactive)
O=C(CSc1nnc(-c2cccs2)o1)N1CCCc2ccccc21 | > 26 µM (inactive)
c1ccc(COc2ccccc2CNC2CCCC2)cc1 | > 26 µM (inactive)
CC(C)(C)NC(=O)c1ccc2c(c1)N(CC(=O)N1CCCCC1)C(=O)C(C)(C)O2 | > 26 µM (inactive)
C(=N\N1CCN(Cc2cccc3ccccc23)CC1)/c1cccnc1 | > 26 µM (inactive)
O=c1c2cc(N3CCOCC3)ccc2[nH]c(=S)n1Cc1ccccn1 | 23.5 µM
COC(=O)C(C)Sc1ncnc2c1nnn2-c1ccc(F)cc1 (stereo not drawn) | 5.57 µM
NC(CSCc1cccc(Br)c1)C(=O)O (stereo not drawn) | > 26 µM (inactive)
CC12CCC3C(CC=C4CC(O)CCC43C)C1C/C(=C\N1CCCC1)C2=O (stereo not drawn) | > 26 µM (inactive)

SMILES | AC40
Nc1ncnc2c1CCC2 | > 26 µM (inactive)
COC(=O)C(C)Sc1nc2c(c(=O)n(C)c(=O)n2C)n1CCC(C)C (stereo not drawn) | > 26 µM (inactive)
O=C1c2cccc3c([N+](=O)[O-])ccc(c23)C(=O)N1O | > 26 µM (inactive)
CN(/C(=N\S(=O)(=O)c1ccccc1)c1ccccc1)c1ccc(O)cc1 | > 26 µM (inactive)
COc1ccc(C2/C=C\CN(S(=O)(=O)/C=C/c3ccccc3)[C@H](Cc3ccccc3)C(=O)N2Cc2ccc(F)cc2)cc1 (stereo partly drawn) | > 26 µM (inactive)
CCN(CCCNC(=O)CNC(=O)c1nn(-c2ccc(OC)cc2OC)c(=O)c2ccccc12)c1cccc(C)c1 | > 26 µM (inactive)
N#C/C(=C(\O)C(F)(F)F)c1nnc2n1CCCCC2 | > 26 µM (inactive)
NS(=O)(=O)c1ccc(NC(=O)CN2C(=O)CCC2=O)cc1 | > 26 µM (inactive)
CCN1CC(CN(C)Cc2nc(COc3ccccc3)no2)CC1=O (stereo not drawn) | > 26 µM (inactive)
O=C1NCC2=C1C(c1ccc(Br)cc1)Nc1ccccc1N2 (stereo not drawn) | 3.58 µM
Cc1ccc2nc(SCC(=O)NCc3ccc(F)cc3)[nH]c2c1 | > 26 µM (inactive)
Cc1cc(C)n2nc(N)c(N=Nc3cccc(Cl)c3)c2n1 | > 26 µM (inactive)
CC(=O)NC(=O)NC1OC(=O)C(Cl)=C1Cl (stereo not drawn) | > 26 µM (inactive)
CCn1nc(C)cc1C(=O)Sc1ccc(Cl)cc1Cl | 14.5 µM
O=c1[nH]c(N2CCN(c3ccccc3)CC2)nc2c1CCC2 | > 26 µM (inactive)
O=C(NC1CCCCC1)C1CCCN1S(=O)(=O)c1cccc2nsnc12 (stereo not drawn) | > 26 µM (inactive)
COCCNC(=S)N/N=C/c1ccc(N2CCOCC2)cc1 | > 26 µM (inactive)
O=C(NC(=S)Nc1ccccc1C(F)(F)F)c1ccccc1F | 19.3 µM
COc1ccc(OCc2nnnn2-c2ccccc2)cc1 | 25.7 µM
O=C(CCS(=O)(=O)c1ccccc1)Nc1ccccn1 | > 26 µM (inactive)
CCCCOc1ccc(C(=O)N/N=C/c2cn[nH]c2-c2ccc(OC)c(OC)c2)cc1 | > 26 µM (inactive)
Cn1c(CCC(=O)OCC(=O)Nc2ccc(Oc3ccccc3)cc2)nc(=O)c2ccccc21 | > 26 µM (inactive)

SMILES | AC40
CCOC(=O)/C(=N/Nc1ccc(Cl)cc1)Sc1nnnn1-c1ccc(C)cc1 | > 12 µM (inactive)
COc1ccc(N2CCN(c3ncnc4c3cnn4-c3ccc(C)cc3C)CC2)cc1 | > 26 µM (inactive)
O=C1c2ccccc2C(=O)N1CCC(=O)N1CCCc2ccccc21 | > 26 µM (inactive)
COc1ccc(-c2cc(C(=O)NCc3ccco3)c3ccccc3n2)cc1 | > 26 µM (inactive)
Cc1ccc(-c2nc3ncccn3c2Nc2ccccc2C)o1 | > 26 µM (inactive)
COc1ccc2cc(/C=C/C(=O)N3CCN(CC(=O)N4CCCCCC4)CC3)ccc2c1 | 12.6 µM
CCCCc1cc(O)c(CCCC)c(O)c1 | 4.58 µM
CCCCCNC(=O)C1CCC(Cn2c(=S)[nH]c3ccccc3c2=O)CC1 (stereo not drawn) | > 26 µM (inactive)
Cc1sc2nc(C)n(/N=C/c3ccc(O)cc3O)c(=O)c2c1C | > 26 µM (inactive)
C/C(=N\OC(=O)c1ccc(F)cc1)c1ccc(F)c(F)c1 | 24.7 µM
S=C(N/N=C/c1cccs1)NC1CC2CCC1C2 (stereo not drawn) | 4.41 µM
CCS(=O)(=O)C(=C1NCCO1)S(=O)(=O)CC | > 26 µM (inactive)
CCC1(C)N=C(N)Nc2nc3cc(C)c(C)cc3n21 (stereo not drawn) | 24.5 µM
CN(Cc1ccccc1)C(=O)c1cc(-c2ccc(Br)cc2)on1 | 2.21 µM
CN(C)C(=O)c1ccc(=O)n(Cc2ccc(Cl)cc2Cl)c1 | > 26 µM (inactive)
CCOc1cc(C(=S)N2CCOCC2)ccc1OS(=O)(=O)c1ccc(C)cc1 | > 26 µM (inactive)
O=c1[nH]c2ccccc2n1CCC1CCCCC1 | 5.36 µM
COc1cccc(/C=N/NC(=S)NC2CC3CC2C2C=CCC32)c1O (stereo not drawn) | > 26 µM (inactive)
O=C(COC(=O)C1CSC2(c3ccc(F)cc3)CCC(=O)N12)NC(=O)NC1CCCC1 (stereo not drawn) | > 26 µM (inactive)
COc1cc(/C=C(/C#N)C(=O)c2c(C)[nH]c3ccccc23)ccc1OCC#N | > 26 µM (inactive)
